Measurements taken from patent US11366104B2, “Methods of identifying and monitoring mitochondrial dysfunction using monocyte screening” (Stealth BioTherapeutics Inc., priority 2014, dated 2022).

How the values were obtained:
[1] = tested on: Monocytes from Heart Failure Dogs; assay: Oxygen consumption rate (XF analyzer) in isolated monocytes incubated with peptide, heart failure dogs; format: cell-based, dog; conditions: for MAXresp (maximal respiration) / Proton Leak / SRC (spare respiratory capacity): monocytes from heart failure dogs
Method: (§1) Peripheral blood samples were obtained from 6 normal dogs and 6 dogs with coronary microembolizations-induced heart failure (LV ejection fraction ˜30%). Monocytes were isolated from the peripheral blood samples via sequential Ficoll and Percoll density gradients. Monocyte viability, assayed using Trypan blue exclusion, was ˜70%. An XFc/XF96 analyzer (Scahorsc Bioscience) was used to measure oxygen consumption rates (OCR) in monocytes in the presence and absence of 1 μM oligomycin, 0.5 μM FCCP, or 1 μM each rotenone and antimycin. Mitochondrial proton leak, maximal respiration (MAXresp) and spare respiratory capacity (SRC) were measured in the presence and absence of 0.1, 1.0 and 10 μM concentrations of D-Arg-2′6′Dmt-Lys-Phe-NH2. Results were expressed in pmols OCR/min/μg protein.

[2] = tested on: Monocytes from Normal Dogs; assay: Oxygen consumption rate (XF analyzer) in isolated monocytes incubated with peptide, normal dogs; format: cell-based, dog; conditions: for MAXresp (maximal respiration) / Proton Leak / SRC (spare respiratory capacity): monocytes from normal dogs
Method: as §1

[3] = tested on: several mammalian cell types; conditions: energy-independent manner; Zhao et al., J. Pharmacol Exp Ther., 304:425-432, 2003; cited from earlier work
[4] = heart failure dogs, 0.1, 1.0 and 10 μM

D-Arg-2′6′Dmt-Lys-Phe-NH2
change in MAXresp with concentration [1, 4]: dose-dependent increase | change in SRC with concentration [1, 4]: dose-dependent increase | change in proton leak with concentration [1, 4]: dose-dependent decrease | monocyte mitochondrial function ([1]; heart failure dogs, after treatment with 0.1, 1.0 and 10 μM): nearly normalized/restored | MAXresp (maximal respiration) ([1]; peptide concentration 0.1 μM): 6.3 pmols OCR/min/μg protein | Proton Leak ([1]; peptide concentration 0.1 μM): 1.55 pmols OCR/min/μg protein | SRC (spare respiratory capacity) ([1]; peptide concentration 0.1 μM): 1.95 pmols OCR/min/μg protein | MAXresp (maximal respiration) ([1]; peptide concentration 1.0 μM): 8.3 pmols OCR/min/μg protein | Proton Leak ([1]; peptide concentration 1.0 μM): 0.94 pmols OCR/min/μg protein | SRC (spare respiratory capacity) ([1]; peptide concentration 1.0 μM): 3.64 pmols OCR/min/μg protein | MAXresp (maximal respiration) ([1]; peptide concentration 10 μM): 9.4 pmols OCR/min/μg protein | Proton Leak ([1]; peptide concentration 10 μM): 0.77 pmols OCR/min/μg protein | SRC (spare respiratory capacity) ([1]; peptide concentration 10 μM): 4.51 pmols OCR/min/μg protein | MAXresp (maximal respiration) ([2]; peptide concentration 0.1 μM): 11.1 pmols OCR/min/μg protein | Proton Leak ([2]; peptide concentration 0.1 μM): 0.54 pmols OCR/min/μg protein | SRC (spare respiratory capacity) ([2]; peptide concentration 0.1 μM): 6.35 pmols OCR/min/μg protein | MAXresp (maximal respiration) ([2]; peptide concentration 1.0 μM): 12.1 pmols OCR/min/μg protein | Proton Leak ([2]; peptide concentration 1.0 μM): 0.47 pmols OCR/min/μg protein | SRC (spare respiratory capacity) ([2]; peptide concentration 1.0 μM): 7.04 pmols OCR/min/μg protein | MAXresp (maximal respiration) ([2]; peptide concentration 10 μM): 12.1 pmols OCR/min/μg protein | Proton Leak ([2]; peptide concentration 10 μM): 0.48 pmols OCR/min/μg protein | SRC (spare respiratory capacity) ([2]; peptide concentration 10 μM): 7.04 pmols OCR/min/μg protein | effect on measures of monocyte mitochondrial function ([2]; normal dogs, incubation with 0.1, 1.0 and 10 μM): no effect

2′,6′-Dmt-D-Arg-Phe-Lys-NH2
penetration of the plasma membrane [3]: readily penetrates the plasma membrane
